Measurements: the supplement of paper PMC10627819

Columns and labels:
S. aureus Newman [1] = assay: Bliss interaction score (quartile over a dose matrix) (fitness difference); higher = more antagonism (negative = synergy)
How it was run: (§1)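 Fitness was OD595 at entry into stationary phase divided by the plate's robust no-drug mean and capped at 1; single-drug fitness was inferred from combination data. The Bliss score is observed minus expected (product) fitness, summarised by quartiles over technical, biological and donor/recipient replicates.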

S. pneumoniae D39V = assay: as above
How it was run: as §1

B. subtilis 168 = assay: as above
How it was run: as §1

S. aureus DSM 20231 [2] = assay: as above
How it was run: as §1

S. aureus Newman [3] = assay: fitness (endpoint OD595 vs no drug) (fraction); higher = more growth
How it was run: (§2)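 Plates with 384 wells were inoculated at OD595 0.01 using 30 µl of TSB, LB Lennox or CY, or 55 µl for S. pneumoniae. Incubation was at 37 °C, with OD595 measured every 30 min for 14 h. Fitness is the stationary-phase transition optical density over the robust mean of no-drug control wells, after first-reading background subtraction; it is capped at 1.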

S. aureus DSM 20231 [4] = assay: as above
How it was run: as §2
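Throughout, for Bliss interaction score (quartile over a dose matrix): first quartile when negative (synergy) and third quartile when positive (antagonism).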

O=C(N[C@H](CO)[C@H](O)c1ccc([N+](=O)[O-])cc1)C(Cl)Cl [Chloramphenicol] + CC1=C\[C@@H](O)CC(=O)Cc2nc(co2)C(=O)N2CCC=C2C(=O)O[C@H](C(C)C)[C@H](C)/C=C/C(=O)NC\C=C\1 [Virginiamycin M1]
Conditions	Bliss interaction score
B. subtilis 168	0.0462
S. aureus DSM 20231 [2]	-0.0544
S. aureus Newman [1]	-0.0589
S. pneumoniae D39V	0.0662

fitness
Conditions	first compound 0.75 µg/mL	first compound 1.5 µg/mL	first compound 3 µg/mL
S. aureus DSM 20231 [4], partner 0.0625 µg/mL	0.735	0.555	0.084
S. aureus DSM 20231 [4], partner 0.125 µg/mL	0.649	0.569	–
S. aureus DSM 20231 [4], partner 0.25 µg/mL	0.789	0.609	0.12
S. aureus Newman [3], partner 0.0625 µg/mL	0.77	0.467	0.144
S. aureus Newman [3], partner 0.125 µg/mL	0.777	0.474	0.151
S. aureus Newman [3], partner 0.25 µg/mL	0.792	0.488	0.179

fitness, one replicate
Conditions	first compound 0.75 µg/mL	first compound 1.5 µg/mL	first compound 3 µg/mL
S. aureus DSM 20231 [4], partner 0.5 µg/mL	0.884	0.601	–
S. aureus DSM 20231 [4], partner 1 µg/mL	0.811	0.535	0.149
S. aureus Newman [3], partner 0.5 µg/mL	0.827	0.609	0.286
S. aureus Newman [3], partner 1 µg/mL	≥ 1	0.692	0.26
S. aureus Newman [3], partner 2 µg/mL	0.815	0.683	0.153

O=C(N[C@H](CO)[C@H](O)c1ccc([N+](=O)[O-])cc1)C(Cl)Cl [Chloramphenicol] + CCCCCCCCCC(=O)N[C@@H]1[C@H]([C@@H]([C@H](O[C@H]1OC2=C3C=C4C=C2OC5=C(C=C(C=C5)[C@H]([C@H]6C(=O)N[C@@H](C7=C(C(=CC(=C7)O)OC8[C@H]([C@H]([C@@H]([C@H](O8)CO)O)O)O)C9=C(C=CC(=C9)[C@H](C(=O)N6)NC(=O)[C@@H]4NC(=O)[C@@H]1C2=CC(=CC(=C2)OC2=C(C=CC(=C2)[C@H](C(=O)N[C@H](CC2=CC(=C(O3)C=C2)Cl)C(=O)N1)N)O)O)O)C(=O)O)O[C@H]1[C@@H]([C@H]([C@@H]([C@H](O1)CO)O)O)NC(=O)C)Cl)CO)O)O [Teicoplanin]
main component drawn
Conditions	Bliss interaction score
B. subtilis 168	-0.0728
S. aureus DSM 20231 [2]	0.143
S. aureus Newman [1]	0.151
S. pneumoniae D39V	-0.0708

fitness, main component drawn
Conditions	first compound 0.75 µg/mL	first compound 1.5 µg/mL	first compound 3 µg/mL
S. aureus DSM 20231 [4], partner 0.1562 µg/mL	0.813	0.638	0.129
S. aureus DSM 20231 [4], partner 0.3125 µg/mL	0.804	–	0.141
S. aureus DSM 20231 [4], partner 0.625 µg/mL	0.915	0.739	0.149
S. aureus Newman [3], partner 0.1562 µg/mL	0.865	0.666	–
S. aureus Newman [3], partner 0.3125 µg/mL	0.876	0.679	0.112
S. aureus Newman [3], partner 0.625 µg/mL	0.842	0.725	0.13

fitness, S. aureus Newman [3], one replicate, main component drawn
Conditions	first compound 0.75 µg/mL	first compound 1.5 µg/mL	first compound 3 µg/mL
partner 0.62 µg/mL	0.876	0.634	0.256
partner 1.24 µg/mL	0.872	0.578	0.191
partner 2.48 µg/mL	0.584	0.512	–

O=C(N[C@H](CO)[C@H](O)c1ccc([N+](=O)[O-])cc1)C(Cl)Cl [Chloramphenicol] + CCN(CC)CCOC(=O)c1ccc(N)cc1 [Procaine]
Conditions	Bliss interaction score
B. subtilis 168	-0.0897
S. aureus DSM 20231 [2]	-0.0791
S. aureus Newman [1]	0.0594
S. pneumoniae D39V	-0.0498

fitness
Conditions	partner 85.5 µg/mL	partner 171 µg/mL	partner 342 µg/mL
S. aureus DSM 20231 [4], first compound 0.75 µg/mL	0.675	–	0.753
S. aureus DSM 20231 [4], first compound 1.5 µg/mL	0.516	0.57	0.538
S. aureus DSM 20231 [4], first compound 3 µg/mL	0.0915	0.0967	0.0943
S. aureus Newman [3], first compound 0.75 µg/mL	0.783	0.787	0.793
S. aureus Newman [3], first compound 1.5 µg/mL	0.531	0.559	0.577
